Structures can show the parent of a compound that is named as a salt.
Assays:
[1] = test system: isolated ischiadicus nerves; experiment: Local anaesthetic effect on isolated ischiadicus nerves of frogs; conditions: for ED50 (dose reducing by 50% the amplitude of the action-potential): isolated ischiadicus nerves of frogs
Description: 4. Local anaesthetical effect The local anaesthetic effect being characteristic of the majority of antiarrhythmical agents is tested on isolated ischiadicus nerves of frogs. The dose reducing by 50% the amplitude of the action-potential induced by stimulation of the nerves is considered as the rate (ED50) of the local anaesthetic effect.

rats = experiment: Acute toxicity on rats; type: in vivo; conditions: own investigations
Description: (§1) Acute toxicity is measured on rats weighing 150-200 g. The test-compound is injected into the tail wein, within a period of not more, than 5 seconds in a volume of 0.2 ml/100 g. The LD50 -value and the confidentiality limits thereof are evaluated on the basis of the number of animals died within 24 hours. See (J. Pharmacol. Exper. Ther. 96, 89 (1948))

dogs [2] = experiment: Toxicity on dogs (own investigations); type: in vivo
dogs [3] = experiment: ECG (EKG) disturbances in dogs; type: in vivo; conditions: dose which exhibits a coronary dilatory effect
strophantine arrhythmia = experiment: Antagonism of strophantine arrhythmia on dogs; type: in vivo
Description: 1. Antagonism of strophantine arrhythmia on dogs
(§2) On dogs anaesthetized with Nembutal (25 mg/kg) (iv.) disturbance of the cardiac rhythm was produced by the slow intravenous infusion of 40 - 80 μg/kg of strophantine, the latter amount depending on the sensibility of the animals. After the appearance of cumulated ventricular extrasystolae the test-compounds are intravenously injected in increasing doses and the arrhythmia antagonizing effect is regarded as positive, if the rhythm disturbance reappears after the cessation of the drug effect. Atrial and ventricular antifibrillatory effect on cats

right atrium = experiment: Atrial antifibrillatory effect on cats (atrial fibrillation threshold); type: in vivo
Description: as §2
(§3) In cats anaesthetized with an urethane mixture (60/300 mg/kg i.p.) the right atrium and the right ventriculum is irritated through a dipolar silver electrode with 20 Hz rectangular electric stimuli of […]. The threshold intensity (i.e. fibrillation threshold value) just eliciting the fibrillation of the ventriculum is determined. The capacity of the compounds to elevate the fibrillation threshold when administered intravenously is tested. (British J. Pharmacol. 17, 167, 1961).

right ventriculum = experiment: Ventricular antifibrillatory effect on cats (ventricular fibrillation threshold); type: in vivo
Description: as §2, §3

isolated right atrium = experiment: Effect on spontaneous frequency of isolated right atria of rabbits
Description: (§4) 3. effect on the electro-physiological characteristics of isolated right and left atria of rabbits
(§5) Rabbits are killed by blows on the napeon; the isolated right atrium which is surviving in a Locke-solution having a temperature of 32° C the spontane frequency and on the isolated left atrium the electric threshold, the velocity of stimulus-transmission and the maximal driving frequency is determined. (Detailed description of the test: see L. Szekeres and Gy. Papp: "Experimental cardiac arrhythmias and antiarrhythmic drugs." Publishing House of the Hungarian Academy of Sciences, Budapest, 1971). Upon the effect of the rising concentrations of the various test compounds, the increase of the electric threshold indicates the reduction of myocardial stimulability and the decrease of the maximal driving frequency indicates the prolongation of the refractory period.

isolated left atrium = experiment: Effect on electro-physiological characteristics of isolated left atria of rabbits (electric threshold, velocity of stimulus-transmission, maximal driving frequency)
Description: as §4, §5

Acute toxicity on rats = type: in vivo; conditions: rat, in vivo, iv, tail vein injection, deaths within 24 hours, confidence 95 %
Description: as §1

SMILES	Period of antagonising strophantine arrhythmia (strophantine arrhythmia; dose 2 mg/kg. i.v.)	Atrial fibrillation threshold, changed value (right atrium; 2 mg/kg iv.)	Ventricular fibrillation threshold, changed value (right ventriculum; 2 mg/kg iv.)	Spontaneous frequency/min., changed value (isolated right atrium; 5 mg/l.)	Spontaneous frequency/min., changed value (isolated right atrium; 10 mg/l.)	Maximal driving frequency/min, changed value (isolated left atrium; 5 mg./l.)	Velocity of stimulus-transmission, changed value (isolated left atrium; 5 mg./l.)	Velocity of stimulus-transmission, deviation from basic value (isolated left atrium; 5 mg./l.)	Electric stimulus threshold, changed value (isolated left atrium; 5 mg/l.)	Maximal driving frequency/min, changed value (isolated left atrium; 10 mg./l.)	Velocity of stimulus-transmission, changed value (isolated left atrium; 10 mg./l.)	Velocity of stimulus-transmission, deviation from basic value (isolated left atrium; 10 mg./l.)	Electric stimulus threshold, changed value (isolated left atrium; 10 mg/l.)	ED50 (dose reducing by 50% the amplitude of the action-potential) [1]	LD50 at 24 h (Acute toxicity on rats)	Atrial fibrillation threshold, changed value (right atrium; 4 mg/kg iv.)	Atrial fibrillation threshold, changed value (right atrium; 6 mg/kg iv.)	Ventricular fibrillation threshold, changed value (right ventriculum; 4 mg/kg iv.)	Ventricular fibrillation threshold, changed value (right ventriculum; 6 mg/kg iv.)	other results
COc1cc(C(=O)OCCCNCCC(c2ccccc2)c2ccccc2)cc(OC)c1OC.Cl [3-(3,3-diphenyl-propylamino)-propyl-3,4,5-trimethoxy-benzoate-hydrochloride, reference compound]	–	–	–	–	–	–	–	–	–	–	–	–	–	–	–	–	–	–	–	wash-out from isolated frog nerve ([1]; isolated frog nerve): cound not be washed out from isolated frog nerve; toxicity relative to the compounds of the Formula I, rats (rats): significantly more toxic than the compounds of the Formula I; toxicity relative to the compounds of the Formula I, dogs (dogs [2]): significantly more toxic than the compounds of the Formula I; ECG (EKG) disturbances (dogs [3]): often caused ECG (EKG) disturbances
COc1cc(C(=O)OCCNC(C)c2ccccc2)cc(OC)c1OC (centres unmarked) [Compound 1, N-2-ethyl-1-phenyl-ethylamino-3,4,5,-trimethoxy-benzoate-hydrochloride]	213 s	1.02 mA	0.97 mA	121 min⁻¹	115 min⁻¹	267 min⁻¹	0.34 m/sec	-15%	0.32 mA	280 min⁻¹	0.43 m/sec	-17%	0.21 mA	0.71 mg/mL	28 mg/kg	–	–	–	–	Period of antagonising strophantine arrhythmia (strophantine arrhythmia; dose 4 mg/kg. i.v.): 260 s
COc1cc(C(=O)OCCNC(C)C)cc(OC)c1OC [Compound 2]	287 s	0.66 mA	0.82 mA	134 min⁻¹	120 min⁻¹	334 min⁻¹	0.32 m/sec	-18%	0.39 mA	251 min⁻¹	0.32 m/sec	-27%	0.62 mA	0.57 mg/mL	57 mg/kg	0.90 mA	0.89 mA	0.99 mA	1.46 mA	Period of antagonising strophantine arrhythmia (strophantine arrhythmia; dose 0,5 mg/kg. i.v.): 145 s; Period of antagonising strophantine arrhythmia (strophantine arrhythmia; dose 1 mg/kg. i.v.): 228 s
COc1cc(C(=O)OCCNC2CCCCC2)cc(OC)c1OC [Compound 3, N-2-ethyl-cyclohexylamino-3,4,5-trimethoxy-benzoate-hydrochloride]	–	0.95 mA	1.02 mA	136 min⁻¹	120 min⁻¹	264 min⁻¹	0.34 m/sec	-40%	0.31 mA	226 min⁻¹	0.20 m/sec	-54%	1.71 mA	0.45 mg/mL	29 mg/kg	1.02 mA	1.18 mA	1.19 mA	1.68 mA	Ventricular fibrillation threshold, deviation from basic value (right ventriculum; 6 mg/kg iv.): +121%; Spontaneous frequency/min., changed value (isolated right atrium; 1 mg/l.): 116 min⁻¹; Maximal driving frequency/min, changed value (isolated left atrium; 1 mg./l.): 352 min⁻¹; Velocity of stimulus-transmission, changed value (isolated left atrium; 1 mg./l.): 0.49 m/sec; Electric stimulus threshold, changed value (isolated left atrium; 1 mg/l.): 0.26 mA; Electric stimulus threshold, deviation from basic value (isolated left atrium; 10 mg/l., in %): +217 /3/

Source: US4010193A, “Basic ester” (Chinoin Gyogyszer-es Vegyeszeti Termekek Gyara RT, priority 1972, dated 1977)
